In US8338422B2, “Indolin-2-ones and aza-indolin-2-ones” (Janssen Pharmaceutica NV, priority 2007, dated 2012):

Assays:
U87MG = assay: Cellular proliferation assay (Alamar blue), U87MG; assay type: cell-based; settings: U87MG cells, 72 hours with compound, 10% FCS; for IC50: Homo sapiens, U-87 MG, 72 h, read-out: pIC50 U87MG (converted)
In short: (§1)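 Proliferation was assessed over 72 h of compound treatment, following 24 h of seeding without compound, under 10% FCS, 37° C. and 5% CO2. Fluorescent resazurin product was measured and compared with control cells.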

PLK4 (h) = PLK4 (h) (Homo sapiens, UniProt O00444); assay: PLK-4 human kinase assay (SPA); assay type: biochemical; settings: for IC50: read-out: PLK4 pIC50 (converted)
In short: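 Radiometric readout: 33P-labelled peptide captured on streptavidin SPA beads after EDTA stop, imaged by Leadseeker. Reaction ran 60 min at room temperature in Hepes pH 8.0 buffer. It contained 1 μM ATP with 2 nM [γ-33P]ATP, 10 μM biotinylated peptide and PLK4 (h) at 19 μg/ml.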

GSK3β (h) = GSK3β (h) (Homo sapiens, UniProt P49841); assay: GSK-3β human kinase assay (SPA); assay type: biochemical; settings: for IC50: read-out: GSK3B pIC50 (converted)
In short: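 Radiometric SPA read-out: after EDTA stop, biotinylated 33P-labelled peptide bound streptavidin PVT beads and was imaged on Leadseeker. Reaction: 60 min, room temperature, GSK3β (h) at 1 μg/ml, 1 μM substrate peptide, 1 μM ATP with 2 nM [γ-33P]ATP, Tris pH 7.4/MgCl2/DTT buffer.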

SKOV3 = assay: Cellular proliferation assay (Alamar blue), SKOV3; assay type: cell-based; settings: 72 hours with compound, 10% FCS; for pIC50 SKOV3: SKOV3 cells; for IC50: Homo sapiens, SK-OV-3, SKOV3 cells, read-out: pIC50 SKOV3 (converted)
Description: […] functional properties of these compounds was tested in cellular proliferation assays on a panel of different cell lines in the presence of 10% FCS serum (37° C. and 5% (v/v) CO2). In a first step these cells were seeded and incubated for 24 hours in the absence of compound. In the second step the cells were incubated for 72 hours with the compounds to be tested for 72 hours. The viable cell number was finally assessed in a standard Alamar blue cell viability assay.
The viable cell number was assessed by incubation for either 4 h (HCT-116, H1299, H460) 6 h (SKOV3, HT29, U87-MG, Colo205) or 24 h (A2780, PC3, MDA-MB-231, A549, MCF-7) with Alamar blue (Resazurin 9 μg/ml, K-Ferrocyanide 90 μM K-Ferricyanide 90 μM) and the converted fluorescent product was quantified on a fluorescent plate readed (544 nm/590 nm). Effect of the compounds is calculated as of on control cells.

H1299 = assay: Cellular proliferation assay (Alamar blue), H1299; assay type: cell-based; settings: H1299 cells, 72 hours with compound, 10% FCS; for IC50: Homo sapiens, NCI-H1299, 72 h, read-out: pIC50 H1299 (converted)
In short: as §1

AuroraB (h) = AuroraB (h) (Homo sapiens, UniProt Q96GD4); assay: Aurora-B human kinase assay (SPA); assay type: biochemical; settings: for IC50: read-out: AuroraB pIC50 (converted)
In short: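 Scintillation proximity assay: AuroraB (h) at 0.5 μg/ml with 3 μM biotinylated peptide, 0.5 μM ATP and 2.2 nM [γ-33P]ATP in 60 mM Hepes pH 7.5, 3 mM MgCl2, 3 mM MnCl2, 2 mM DTT. 60 min at room temperature, EDTA stop, streptavidin PVT beads read on Leadseeker.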

MDA/MB231 = assay: Cellular proliferation assay (Alamar blue), MDA/MB231; assay type: cell-based; settings: MDA/MB231 cells, 72 hours with compound, 10% FCS; for IC50: Homo sapiens, MDA-MB-231, 72 h, read-out: pIC50 MDA/MB231 (converted)
In short: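 Seed cells, 24 h, no compound; add compound, 72 h, 10% FCS, 37° C./5% CO2; add resazurin 9 μg/ml with K-ferrocyanide and K-ferricyanide 90 μM each (4 h H460, 24 h MDA-MB-231); read fluorescence 544/590 nm; effect vs control cells.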

CDK1/CyclinB (h) = CDK1/CyclinB (h) (Homo sapiens, UniProt P06493); assay: CDK1/CyclinB human kinase assay (FRET); assay type: biochemical; settings: for IC50: read-out: CDK1 pIC50 (converted)
In short: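 Z'-LYTE FRET format: 0.2 μg/ml enzyme with 2 μM Ser/Thr peptide 12 and 10 μM ATP in 50 mM Hepes pH 7.5, 10 mM MgCl2, 1 mM EGTA, 0.01% Brij-35, 60 min at room temperature. Protease development 60 min; coumarin/fluorescein emission ratio (460/538 nm, excitation 390 nm) reports phosphorylation.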

A2780 = assay: Cellular proliferation assay (Alamar blue), A2780; assay type: cell-based; settings: A2780 cells, 72 hours with compound, 10% FCS; for IC50: Homo sapiens, A2780, 72 h, read-out: pIC50 A2780 (converted)
In short: as §1

PC-3 = assay: Cellular proliferation assay (Alamar blue), PC-3; assay type: cell-based; settings: PC-3 cells, 72 hours with compound, 10% FCS; for IC50: Homo sapiens, PC-3, 72 h, read-out: pIC50 PC-3 (converted)
In short: as §1

HCT-116 = assay: Cellular proliferation assay (Alamar blue), HCT-116; assay type: cell-based; settings: HCT-116 cells, 72 hours with compound, 10% FCS; for IC50: Homo sapiens, HCT-116, 72 h, read-out: pIC50 HCT-116 (converted)
In short: as §1

Chain of GSK3β (h) (P49841 whole entry): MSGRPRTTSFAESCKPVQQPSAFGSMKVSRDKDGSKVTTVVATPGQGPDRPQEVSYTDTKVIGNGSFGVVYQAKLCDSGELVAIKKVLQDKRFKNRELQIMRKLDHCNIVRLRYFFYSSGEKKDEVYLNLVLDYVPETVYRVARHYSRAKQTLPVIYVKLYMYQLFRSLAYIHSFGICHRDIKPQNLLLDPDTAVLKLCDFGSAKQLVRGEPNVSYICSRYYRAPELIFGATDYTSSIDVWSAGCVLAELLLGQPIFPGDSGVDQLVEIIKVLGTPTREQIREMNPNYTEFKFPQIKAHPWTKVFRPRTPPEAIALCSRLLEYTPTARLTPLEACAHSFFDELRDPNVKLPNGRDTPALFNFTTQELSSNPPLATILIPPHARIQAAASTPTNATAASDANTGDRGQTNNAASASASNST
Chain of CDK1/CyclinB (h) (P06493 whole entry): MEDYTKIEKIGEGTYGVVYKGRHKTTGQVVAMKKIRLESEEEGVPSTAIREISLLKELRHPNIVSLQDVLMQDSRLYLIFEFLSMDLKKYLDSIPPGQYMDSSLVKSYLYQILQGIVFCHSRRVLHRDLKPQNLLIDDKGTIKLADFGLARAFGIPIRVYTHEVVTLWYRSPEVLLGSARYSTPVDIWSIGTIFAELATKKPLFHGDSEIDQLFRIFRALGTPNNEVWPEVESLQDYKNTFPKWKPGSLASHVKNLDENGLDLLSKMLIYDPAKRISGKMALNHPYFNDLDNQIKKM
Chain of CDK1/CyclinB (h) (P14635 whole entry partner): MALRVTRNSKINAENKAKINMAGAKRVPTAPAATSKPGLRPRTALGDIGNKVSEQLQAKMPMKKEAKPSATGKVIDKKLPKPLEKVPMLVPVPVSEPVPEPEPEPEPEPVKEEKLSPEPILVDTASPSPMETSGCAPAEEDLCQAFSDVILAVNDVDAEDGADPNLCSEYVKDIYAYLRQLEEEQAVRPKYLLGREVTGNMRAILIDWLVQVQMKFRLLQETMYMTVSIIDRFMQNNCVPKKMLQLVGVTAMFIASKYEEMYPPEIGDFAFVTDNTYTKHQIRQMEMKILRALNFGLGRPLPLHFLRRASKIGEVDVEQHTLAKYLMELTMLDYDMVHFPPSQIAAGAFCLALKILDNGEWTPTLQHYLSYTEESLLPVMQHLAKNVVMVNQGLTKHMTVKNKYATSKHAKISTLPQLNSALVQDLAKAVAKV
Chain of PLK4 (h) (O00444 whole entry): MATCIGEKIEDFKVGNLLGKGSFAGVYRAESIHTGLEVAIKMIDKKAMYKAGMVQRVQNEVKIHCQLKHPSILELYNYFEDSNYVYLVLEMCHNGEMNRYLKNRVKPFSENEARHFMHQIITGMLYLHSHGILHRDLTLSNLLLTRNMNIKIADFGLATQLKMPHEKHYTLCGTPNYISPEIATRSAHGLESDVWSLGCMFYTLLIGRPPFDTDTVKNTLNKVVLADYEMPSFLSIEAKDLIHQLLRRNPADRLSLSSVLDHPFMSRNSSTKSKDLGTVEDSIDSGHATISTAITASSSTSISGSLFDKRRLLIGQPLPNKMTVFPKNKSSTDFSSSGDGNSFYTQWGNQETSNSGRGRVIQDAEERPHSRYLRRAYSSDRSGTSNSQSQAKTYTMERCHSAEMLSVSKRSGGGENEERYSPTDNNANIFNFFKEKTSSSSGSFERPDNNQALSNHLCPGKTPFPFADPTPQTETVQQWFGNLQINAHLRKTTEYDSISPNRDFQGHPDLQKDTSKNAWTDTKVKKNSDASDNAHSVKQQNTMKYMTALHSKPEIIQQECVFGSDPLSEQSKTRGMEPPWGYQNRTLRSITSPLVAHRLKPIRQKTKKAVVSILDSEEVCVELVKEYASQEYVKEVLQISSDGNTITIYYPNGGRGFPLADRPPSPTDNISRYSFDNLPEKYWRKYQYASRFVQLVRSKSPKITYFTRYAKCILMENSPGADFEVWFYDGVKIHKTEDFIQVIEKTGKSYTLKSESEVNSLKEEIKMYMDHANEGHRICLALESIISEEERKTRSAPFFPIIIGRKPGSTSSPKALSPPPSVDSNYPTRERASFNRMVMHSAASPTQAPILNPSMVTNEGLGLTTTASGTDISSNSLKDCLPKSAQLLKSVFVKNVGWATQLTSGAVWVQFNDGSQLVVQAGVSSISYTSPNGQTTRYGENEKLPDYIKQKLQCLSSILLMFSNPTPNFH
Chain of AuroraB (h) (Q96GD4 whole entry): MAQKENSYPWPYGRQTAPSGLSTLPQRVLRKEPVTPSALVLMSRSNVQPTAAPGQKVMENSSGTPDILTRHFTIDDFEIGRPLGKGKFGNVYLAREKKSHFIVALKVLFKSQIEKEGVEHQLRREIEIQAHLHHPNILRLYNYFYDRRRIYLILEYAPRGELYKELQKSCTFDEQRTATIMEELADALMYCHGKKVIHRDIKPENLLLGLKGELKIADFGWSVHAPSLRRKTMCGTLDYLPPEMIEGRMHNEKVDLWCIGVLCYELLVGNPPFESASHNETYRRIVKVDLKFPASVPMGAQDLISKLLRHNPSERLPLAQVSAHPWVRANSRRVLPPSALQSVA

Row | Structure (SMILES) | IC50 (U87MG) [µM] | IC50 (PLK4 (h)) [µM] | IC50 (HCT-116) [µM] | IC50 (GSK3β (h)) [nM] | IC50 (SKOV3) [µM] | IC50 (H1299) [µM] | IC50 (AuroraB (h)) [µM] | IC50 (MDA/MB231) [µM] | IC50 (CDK1/CyclinB (h)) [µM] | IC50 (A2780) [µM] | IC50 (PC-3) [µM] | also measured
1 | CN1CCN(c2ccc3cc2CN(C)CCCCCC(=O)N(C)CCCNc2ncnc4c2C(=CN3)C(=O)N4)CC1 (mixture of isomers) [Compound 117] |  |  |  |  |  |  |  |  |  |  |  | pIC50 U87MG (U87MG): 5.55; PLK4 pIC50 (PLK4 (h)): 6.5; GSK3B pIC50 (GSK3β (h)): 5.58; pIC50 SKOV3 (SKOV3): <5; pIC50 H1299 (H1299): 5.15; AuroraB pIC50 (AuroraB (h)): <5; pIC50 MDA/MB231 (MDA/MB231): 5.06; CDK1 pIC50 (CDK1/CyclinB (h)): <5; pIC50 A2780 (A2780): 5.63; pIC50 PC-3 (PC-3): <5
2 | CN1CCCNc2ncnc3c2C(=CNc2ccc(N4CCOCC4)c(c2)OCCCCCC1=O)C(=O)N3 (mixture of isomers) [Compound 120] |  |  |  |  |  |  |  |  |  |  |  | pIC50 U87MG (U87MG): 5.99; PLK4 pIC50 (PLK4 (h)): 6.67; pIC50 HCT-116 (HCT-116): 5.38; GSK3B pIC50 (GSK3β (h)): 6.73; pIC50 SKOV3 (SKOV3): 5.02; pIC50 H1299 (H1299): 5.68; AuroraB pIC50 (AuroraB (h)): 5.58; pIC50 MDA/MB231 (MDA/MB231): 5.03; CDK1 pIC50 (CDK1/CyclinB (h)): 5.86; pIC50 A2780 (A2780): 5.95; pIC50 PC-3 (PC-3): <5
3 | CN1CCCNc2ncnc3c2C(=CNc2ccc(N4CCOCC4)c(c2)OCCCCC1=O)C(=O)N3 (mixture of isomers) [Compound 121] |  |  |  |  |  |  |  |  |  |  |  | pIC50 U87MG (U87MG): 6.66; PLK4 pIC50 (PLK4 (h)): 7.22; pIC50 HCT-116 (HCT-116): 5.99; GSK3B pIC50 (GSK3β (h)): 7.45; pIC50 SKOV3 (SKOV3): 5.78; pIC50 H1299 (H1299): 6.32; AuroraB pIC50 (AuroraB (h)): 6.15; pIC50 MDA/MB231 (MDA/MB231): 5.20; CDK1 pIC50 (CDK1/CyclinB (h)): 6.24; pIC50 A2780 (A2780): 6.48; pIC50 PC-3 (PC-3): 5.19
4 | CN1CCN(c2ccc3cc2CN(C)CCCC(=O)N(C)CCNc2ncnc4c2/C(=C/N3)C(=O)N4)CC1 [Compound 116] | 3.24 | 5.89 | 6.46 | 3090 | > 10 | 9.77 | > 10 | 5.25 | > 10 | 3.72 | > 10 | 
5 | COc1cc2cc(c1OC)CN(C)CCCC(=O)N(C)CCNc1ncnc3c1/C(=C/N2)C(=O)N3 [Compound 118] | > 10 | > 10 | > 10 | > 10000 | > 10 | > 10 | > 10 | > 10 | > 10 | > 10 | > 10 | 
6 | COc1cc2cc(c1OC)CN(C)CCCCC(=O)N(C)CCNc1ncnc3c1/C(=C/N2)C(=O)N3 [Compound 119] | > 10 | 7.41 |  | > 10000 | > 10 | > 10 | > 10 | > 10 | 6.31 | 2.57 | > 10 | 
7 | CN1CCN(c2ccc3cc2CN(C)CCCCC(=O)N(C)CCCNc2ncnc4c2/C(=C/N3)C(=O)N4)CC1 [Compound 122] | 0.708 | 0.851 |  | 575 | 8.32 | 1.2 | > 10 | 1.95 | 4.68 | 0.288 | 7.94 | 
8 | COc1cc2cc(c1OC)CN(C)CC(=O)N(C)CCNc1ncnc3c1/C(=C/N2)C(=O)N3 [Compound 123] | > 10 | > 10 | > 10 | > 10000 | > 10 | > 10 | > 10 | > 10 | > 10 | > 10 | > 10 | 
9 | CN1CCNc2ncnc3c2/C(=C/Nc2cccc(c2)CN(C)CC(=O)N(C)CC1)C(=O)N3 [Compound 149] | > 10 | 5.01 | > 10 | 302 |  | > 10 | > 10 | > 10 | > 10 | > 10 | > 10 | 
10 | COc1ccc2cc1OCC(=O)N(C)CCCCNc1ncnc3c1/C(=C/N2)C(=O)N3 [Compound 151] | > 10 | 3.47 | > 10 | 933 |  | > 10 | 2.88 | > 10 | > 10 | > 10 | > 10 | 
11 | COc1cc2cc(c1OC)CN(C)CC(=O)N(C)CCCCNc1ncnc3c1/C(=C/N2)C(=O)N3 [Compound 152] | > 10 | 5.01 | > 10 | > 10000 |  | > 10 | > 10 | > 10 | > 10 | > 10 | > 10 | 
12 | COc1ccc2cc1CN(C)CC(=O)N(C)CCCCNc1ncnc3c1/C(=C/N2)C(=O)N3 [Compound 153] | > 10 | 2.57 | > 10 | 1620 |  | > 10 | > 10 | > 10 | > 10 | > 10 | > 10 | 
13 | CN1CC(=O)N(C)CCCCNc2ncnc3c2/C(=C/Nc2cccc(c2)C1)C(=O)N3 [Compound 154] | > 10 | 2.82 | > 10 | 661 |  | > 10 | > 10 | > 10 | > 10 | > 10 | > 10 | 
14 | COc1cc2cc(c1OC)CN(C)CC(=O)N(C)CCN(C)CCNc1ncnc3c1/C(=C/N2)C(=O)N3 [Compound 155] | > 10 | 8.71 | > 10 | 6030 |  | > 10 | > 10 | > 10 | > 10 | > 10 | > 10 | 
